Measurements: BindingDB's records for doi:10.1016/j.bmcl.2009.07.083 (Bristol-Myers Squibb, 2009)

Molecular target: Potassium voltage-gated channel subfamily A member 5 (Homo sapiens, UniProt P22460)
Test: Inhibition of human Kv1.5 channel expressed in mouse L929 cells

Chain of Potassium voltage-gated channel subfamily A member 5 (P22460 whole entry): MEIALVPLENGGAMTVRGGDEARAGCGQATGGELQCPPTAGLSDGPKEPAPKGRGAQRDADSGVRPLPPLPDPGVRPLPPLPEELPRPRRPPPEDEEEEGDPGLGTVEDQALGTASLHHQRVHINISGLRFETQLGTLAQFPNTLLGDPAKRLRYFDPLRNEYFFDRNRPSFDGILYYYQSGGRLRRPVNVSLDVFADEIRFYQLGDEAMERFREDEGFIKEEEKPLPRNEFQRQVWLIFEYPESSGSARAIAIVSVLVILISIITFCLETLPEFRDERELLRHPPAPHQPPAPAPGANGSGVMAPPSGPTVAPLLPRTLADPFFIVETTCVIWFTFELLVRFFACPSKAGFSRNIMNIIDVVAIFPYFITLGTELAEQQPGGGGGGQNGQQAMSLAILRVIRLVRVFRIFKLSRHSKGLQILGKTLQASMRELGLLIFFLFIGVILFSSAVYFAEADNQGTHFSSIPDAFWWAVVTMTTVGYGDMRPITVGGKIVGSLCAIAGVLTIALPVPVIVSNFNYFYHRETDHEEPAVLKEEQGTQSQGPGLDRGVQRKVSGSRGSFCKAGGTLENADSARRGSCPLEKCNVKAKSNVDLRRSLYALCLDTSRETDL

Row | Structure (SMILES) | IC50
1 | CC1=Nc2ccnn2C(c2ccc(Cl)c(Cl)c2)C1c1nc2cc(C)ccc2n1C (centres undefined) [7-(3,4-dichlorophenyl)-6-(1,5-dimethyl-1H-benzo[d]imidazol-2-yl)-5-methyl-4,7-dihydropyrazolo[1,5-a]pyrimidine] | 200 nM
2 | CC1=Nc2ccnn2C(c2ccc(Cl)c(Cl)c2)C1c1nc2cc(S(=O)(=O)Nc3ccccc3)ccc2n1C (centres undefined) [2-(7-(3,4-dichlorophenyl)-5-methyl-4,7-dihydropyrazolo[1,5-a]pyrimidin-6-yl)-1-methyl-N-phenyl-1H-benzo[d]imidazole-5-sulfonamide] | > 1000 nM
3 | CC1=Nc2ccnn2C(c2ccc(Cl)c(Cl)c2)C1c1nc2c(C)cccc2[nH]1 (centres undefined) [7-(3,4-dichlorophenyl)-5-methyl-6-(7-methyl-1H-benzo[d]imidazol-2-yl)-4,7-dihydropyrazolo[1,5-a]pyrimidine] | 150 nM
4 | CC1=Nc2ccnn2C(c2ccc(Cl)c(Cl)c2)C1c1ncc(-c2ccccc2)o1 (centres undefined) [2-(7-(3,4-dichlorophenyl)-5-methyl-4,7-dihydropyrazolo[1,5-a]pyrimidin-6-yl)-5-phenyloxazole] | > 1000 nM
5 | CC1=Nc2ccnn2C(c2ccc(Cl)c(Cl)c2)C1c1nc2cc(S(C)(=O)=O)ccc2n1C (centres undefined) [7-(3,4-dichlorophenyl)-5-methyl-6-(1-methyl-5-(methylsulfonyl)-1H-benzo[d]imidazol-2-yl)-4,7-dihydropyrazolo[1,5-a]pyrimidine] | > 1000 nM
6 | CC1=Nc2ccnn2C(c2ccc(Cl)c(Cl)c2)C1c1nnc(-c2ccccc2)o1 (centres undefined) [2-(7-(3,4-dichlorophenyl)-5-methyl-4,7-dihydropyrazolo[1,5-a]pyrimidin-6-yl)-5-phenyl-1,3,4-oxadiazole] | > 1000 nM
7 | CC(=O)Nc1ccc2c(c1)nc(C1C(C)=Nc3ccnn3C1c1ccc(Cl)c(Cl)c1)n2C (centres undefined) [N-(2-(7-(3,4-dichlorophenyl)-5-methyl-4,7-dihydropyrazolo[1,5-a]pyrimidin-6-yl)-1-methyl-1H-benzo[d]imidazol-5-yl)acetamide] | > 1000 nM
8 | CC1=Nc2ccnn2C(c2ccc(Cl)c(Cl)c2)C1c1nc2cccc(F)c2n1C (centres undefined) [7-(3,4-dichlorophenyl)-6-(7-fluoro-1-methyl-1H-benzo[d]imidazol-2-yl)-5-methyl-4,7-dihydropyrazolo[1,5-a]pyrimidine] | 150 nM
9 | CCCCc1nnc(C2C(C)=Nc3ccnn3C2c2ccc(Cl)c(Cl)c2)o1 (centres undefined) [2-butyl-5-(7-(3,4-dichlorophenyl)-5-methyl-4,7-dihydropyrazolo[1,5-a]pyrimidin-6-yl)-1,3,4-oxadiazole] | > 1000 nM
